Source: patent US6211225A, “Heterocyclic aminopyrrolidine derivatives as melatonergic agents” (Bristol-Meyers Squibb, priority 2000, dated 2001)

Assays:
[1] = target: T1, human melatonin ML1a receptor (Homo sapiens, UniProt P48039); test: Melatonergic receptor binding activity (2-[125I]-iodomelatonin binding, membranes of NIH-3T3 cells expressing ML1a); conditions: 37° C. for 1 hour, read-out: Melatonin Binding Affinity (IC50)
T1 construct: expressed in transfected cells; membrane homogenates
Protocol: Melatonergic Receptor Binding Activity
(a) TME=50 mM Tris buffer containing 12.5 mM MgCl2, and 2 mM EDTA, pH 7.4 at 37° C. with concentrated HCl.
(b) Wash buffer: 20 mM Tris base containing 2 mM MgCl2, pH 7.4 at room temperature.
(c) 10^-4 M melatonin (10^-5 M final concentration).
(d) 2-[^125 I]-iodomelatonin, 0.1 M final concentration
The melatonin ML1a receptor cDNA was subcloned into pcDNA3 and introduced into NIH-3T3 cells using Lipofectamine. Transformed NIH-3T3 cells resistant to geneticin (G-418) were isolated, and single colonies expressing high levels of 2[^125 I]-iodomelatonin binding were isolated. Cells are maintained in DMEM supplemented with 10% calf serum and G-418 (0.5 g/liter). Cells are grown to confluency in T-175 flasks, scraped using Hank's balanced salt solution, and frozen at -80° C. For preparing membrane homogenates, pellets are thawed on ice, and resuspended in TME buffer in the presence of 10 μg/ml aprotinin and leupeptin, and 100 ,μM phenylmethylsulfonylfluoride. The cells were then homogenized using a dounce homogenizer, and centrifuged. The resulting pellet was resuspended with dounce homogenizer in TME (supplemented with the above protease inhibitors) and frozen. On the day of assay, the small aliquot was thawed on ice and resuspended in ice cold TME (1:50-1:100 v/v) and held on ice until assayed.
37° C. for 1 hour. Reaction is terminated by filtration. Filters are washed 3 times.
^a = IC50 values for ML1a human melatonin receptor binding

[2] = system: circadian rhythms in rats; conditions: cited from earlier work

T1 sequence (P48039 whole entry): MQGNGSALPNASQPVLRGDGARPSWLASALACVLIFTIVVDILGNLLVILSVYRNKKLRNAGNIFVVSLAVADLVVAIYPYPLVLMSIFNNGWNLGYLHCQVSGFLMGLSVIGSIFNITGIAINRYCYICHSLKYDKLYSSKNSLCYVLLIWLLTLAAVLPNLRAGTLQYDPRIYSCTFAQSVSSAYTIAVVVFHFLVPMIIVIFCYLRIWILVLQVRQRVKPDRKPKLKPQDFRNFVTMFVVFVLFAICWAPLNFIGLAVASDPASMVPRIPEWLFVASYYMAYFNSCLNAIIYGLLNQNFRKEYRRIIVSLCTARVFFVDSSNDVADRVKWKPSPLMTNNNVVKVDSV

Structure (SMILES)	IC50 [1] [nM]	effect of exogenous melatonin administration on circadian rhythms [2]
CCC(=O)N[C@@H]1CCN(c2cccc3c2CCO3)C1 [Example 4, (R)-N-[N-(2,3-dihydrobenzofuran-4-yl)-pyrrolidin-3-yl]propanamide]	10 to 200	
CC(=O)N[C@H]1CCN(c2cccc3c2OCCO3)C1 [Example 14, (S)-N-[N-(2,3-dihydro-1,4-benzodioxin-5-yl)-pyrrolidin-3-yl]acetamide]	10 to 200	
CCNC(=O)N[C@@H]1CCN(c2cccc3c2CCO3)C1 [Example 21, (R)-N-[N-(2,3-dihydrobenzofuran-4-yl)-pyrrolidin-3-yl]-N'-ethyl urea]	< 10	
CCNC(=O)N[C@H]1CCN(c2cccc3c2OCCO3)C1 [Example 28, (S)-N-[N-(2,3-dihydro-1,4-benzodioxin-5-yl)-pyrrolidin-3-yl]-N'-ethyl urea]	10 to 200	
O=C(NC1CC1)N[C@@H]1CCN(c2cccc3c2CCO3)C1 [Example 30, (R)-N-[N-(2,3-Dihydrobenzofuran-4-yl)-Pyrrolidin-3-yl]-N'-Cylopropyl Urea]	10 to 200	
CN(C)C(=O)N[C@H]1CCN(c2cccc3c2CCO3)C1 [Example 32, (S)-N-[N-(2,3-dihydrobenzofuran-4-yl)-pyrrolidin-3-yl]-N',N'-dimethyl urea]	10 to 200	
CC(=O)N[C@H]1CCN(c2c(Cl)cc(Cl)c3c2CCO3)C1 [Example 35, (S)-N-[N-(5,7-Dichloro-2,3-Dihydrobenzofuran-4-yl)-Pyrrolidin-3-yl]Acetamide]	< 10	
CCCC(=O)N[C@H]1CCN(c2c(Cl)ccc3c2CCO3)C1 [Example 36, (S)-N-[N-(5-chloro-2,3-dihydrobenzofuran-4-yl)-pyrrolidin-3-yl]butyramide]	< 10	
COc1ccc2[nH]cc(CCNC(C)=O)c2c1 [melatonin, N-acetyl-5-methoxytryptamine]		synchronize circadian rhythms in rats

Continued, in another order:

IC50 [1] [nM]	Structure (SMILES)	effect of exogenous melatonin administration on circadian rhythms [2]
< 10	O=C(N[C@@H]1CCN(c2cccc3c2CCO3)C1)C1CC1 [Example 10, (R)-N-[N-(2,3-dihydrobenzofuran-4-yl)-pyrrolidin-3-yl]cyclopropane carboxamide]	
< 10	COCC(=O)N[C@H]1CCN(c2cccc3c2CCO3)C1 [Example 11, (S)-N-[N-(2,3-dihydrobenzofuran-4-yl)-pyrrolidin-3-yl]methoxyacetamide]	
< 10	CCC(=O)N[C@H]1CCN(c2cccc3c2CCCO3)C1 [Example 13, (S)-N-[N-(2H-2,3-dihydrobenzopyran-5-yl)-pyrrolidin-3-yl]propanamide]	
< 10	CCNC(=O)N[C@H]1CCN(c2cccc3c2CCO3)C1 [Example 20, (S)-N-[N-(2,3-dihydrobenzofuran-4-yl)-pyrrolidin-3-yl]-N'-ethyl urea]	
